From EP0603160A2, “Compositions for in-situ active compound assembly” (SCRIPPS CLINIC AND RESEARCH FOUNDATION, priority 1986, dated 1988)
Where two headings read alike, the source gives them in different places.

Key:
human erythrocytes = assay: Erythrocyte lysis (light scattering, hemoglobin release, cell counts); assay type: cell-based; details: for time for which erythrocytes are stable: solutions containing either DAPG or CHD alone
Method: The putative product shown in Reaction Scheme 1 is evidently cytotoxic, since a suspension of human erythrocytes in a solution containing both CHD and DAPG in phosphate buffered saline is 95% lysed or aggregated within 1-14 hours under physiological conditions (the precise time depending on the concentrations) whereas erythrocytes are stable for at least 24 hours in plain PBS, and also in solutions containing either DAPG or CHD alone. In addition, when erythrocytes are incubated with mixtures of CHD and DAPG, a substantial induction period is observed during which no lysis or aggregation occurs, due to the time lag in formation of the cytotoxic material. Whether lysis or aggregation results depends on relative concentration; excess CHD results in lysis, equimolar concentrations in aggregation. The cytotoxicity may be due to the formation of the polycation, analogous to the known antitumor activity of poly-(L-lysine); Arnold, L. J. Proc. Natl Acad Sci (supra).
For erythrocytes blood was collected and stored with KEDTA at 4°C and erythrocytes prepared within 48 hours by centrifuging three times in phosphate-buffered saline (PBS, pH 7.4). Suspensions containing 3 x 10⁷ cells/ml were prepared in PBS containing 1% EtOH, but no […] cations, and incubated at 37°C with the compounds or mixtures to be tested.
On the other hand, while a mixture of 28 µM AOG and 28 µM decanal (reagent grade, Aldrich Chemical Co.) results in less than 10% lysis within the same 20 minute time frame, as the time of incubation increases, lysis increases also, as indicated by hemoglobin release measured by (1) light absorption of the supernatant at 400 nm. (2) decrease of light scattering by the cells at 700 nm, and (3) direct cell counts using a microscope. […] Suspensions of 3.5 x 10⁷ cells/ml prepared as above in PBS (1% EtOH, no divalent cations, pH 7.4) were incubated at 37°C, and cell lysis was followed by observing the decrease in absorbance at 700 nm. For 0% lysis, A₇₀₀ is 1.0; 0.2 for 100% lysis).
The curves were calculated using a nonlinear least squares fitting algorithm (Arc, H, et al, Statistical Methods (1970) Harper & Row, pp. 100-111) and based on a modified Hill equation (Cantor, C.R. et al, supra) wherein percent hemolysis is calculated as 100% divided by (1+(K/C))^α [formula] . In this equation, K is the median effect concentration, C is the concentration of DIOG (or of decanal and AOG), and α is the Hill constant.

HeLa cells = assay: HeLa cell cytotoxicity, trypan blue exclusion; assay type: cell-based, human; details: for percentage of cells intact: 400 µM, each alone, two hours, Figure 5a; for HeLa cell toxicity: AOG or dodecanedial alone, Figure 5b
Method: These cells were grown in suspension in Joklik's median supplemented with calf serum, centrifuged and then taken up into Dulbecco's modified Eagles medium (DMEM) without serum. Cell suspensions containing 2-4 x 10⁶ cell/ml in DMEM containing 1% ethanol were incubated at 37°C, with or without decanal. AOG, or combinations thereof. Cell membrane damage was measured by hand counting of cells using trypan blue exclusion as the criterion.

S cerevisiae = assay: Yeast growth in YPD medium with AOG and decanal; assay type: cell-based; details: 24 hours
Method: The effect of the combination of AOG and decanal on yeast was also determined. S cerevisiae in YPD medium at cell densities of 10⁵-10⁶ cell/ml used as starting concentrations. When no reagents were added to the medium, the cell density increased about 90 fold in 24 hours. […] When 10 µg/ml decanal plus 44 µg/ml AOG were added in combination, all yeast died after 24 hours.

Ox blood erythrocytes [1] = assay: Erythrocyte killing with or without 1% serum, light scattering; assay type: cell-based; details: Bos taurus, Erythrocyte, 1 h, pH 6.6; for mortality at 448 µM: Decanal 0, AOG maintained at 448 µM according to the text (Table 4)
Method: (§1) Ox blood erythrocytes were incubated for one hour in PBS at pH 6.6 in the presence or absence of 1% serum at 37°C. […] However, at 4-16 µM DIOG, the percentage of cells killed increased from 4.3 to 60.9. On the other hand, in the absence of serum, 7.2.% cells were killed even without the addition of DIOG, and a steady increase in killing occurred as the DIOG concentration increased, reaching 100% of cells killed at 8 µM.
The AOG concentration was maintained at a high level (448 µM) and the decanal concentration varied from 0-16 µM corresponding the previous DIOG concentration range. In this protocol, similar results were obtained for cells incubated in the absence of serum, but in the presence of 1% serum the curve was slightly displaced so that the cells appeared more protected as shown in Table 4.

Ox blood erythrocytes [2] = assay: Erythrocyte killing with or without 1% serum, hemoglobin release; assay type: cell-based; details: Bos taurus, 1 h, read-out: cell killing measured by hemaglobin release, 1% Serum
Method: as §1

Ox blood erythrocytes [3] = assay: Erythrocyte killing with or without 1% serum, light scattering; assay type: cell-based; details: Bos taurus, 1 h, pH 6.6, 896 µM AOG, Decanal 0µM (Table 4), read-out: % cells killed (0% serum)
S. cerevisiae YP52 = assay: Growth inhibition of yeast by PC and HP in YPD medium, roller drum; assay type: cell-based; details: each alone, concentrations below 2 mM, 20 hours at 30°C in YPD medium
Method: Pyridine-2-carboxaldehyde (PC) and 2-hydrazino-pyridine (HP) are each alone nontoxic to S. cerevisiae YP52 yeast at concentrations below 2 mM when provided over 20 hours at 30°C in YPD medium in a roller drum. However, when supplied together, these compounds are capable of inhibiting the growth of S. cerevisiae YP52 at 30 °C in YPD. When placed together in the medium at concentrations of 1 mM + 1 mM and at 0.5 mM + 0.5 mM. substantial inhibition occurs. The adduct. pyridino-2-carboxaldehyde (2-pyridyl hydrazone) (PCPH) of the formula: [drawing 25] is a chelator and has a structural similarity to 2,2': 6',2'' terpyridine which is a known cytotoxin (McFadyen et al, J Med Chem (1985) 28:1113-1116). The second order rate constant for this reaction is 2 l/mol-sec at 37 °C, pH6, in phosphate-buffered saline.

Monilinia sp = assay: Fungal growth on YPD medium; assay type: cell-based; details: 2 mM of either reagent alone
Method: Similar results are obtained using Candida albicans, a human infective agent, as the target organism. […] Also, the growth of Monilinia sp, the causal agent in peach brown rot, is inhibited by the combination of the foregoing reagents, but not by either individually. No growth is observed after four days on YPD medium when 250 µM each of the pyridine-2-carboxaldehyde and 2-hydrazinopyridine are included.

[4] = tested on: S. typhimurium strain 14028R; assay: Suspension culture CFU at pH 5 versus pH 7.4; assay type: cell-based; details: NFZ alone at 10 µM; 20 hours at 37°C in PBS, 1% DMSO
Method: This selectivity was also shown in suspension cultures when S. typhimurium strain 14028R was incubated for 20 hours at 37°C in PBS at either pH 5 or pH 7.4 containing 1% DMSO. When no drugs were added, the culture contained 8 x 10⁶ colony forming units (CFU)/ml for pH 5 and 1.5 x 10⁷ CFU/ml for pH 7.4. The self assembling drugs tested in this instance were semicarbazide (SC), […] (NFA) and their reaction product nitrofurazone (NFZ). Either the […] product, or mixtures of various concentrations of the precursors NC + NA were added after inoculation of the medium. While the maximum toxic selectivity (the ratio of CFU/ml at pH 7.4 as compared to CFU/ml at pH 5) observed for, NFZ alone, at 10 µM was about 100, a mixture of 1500 µM SC + 7 µM NFA gave a toxic selectivity ratio of over 8000.

S. typhimurium = assay: Filter disk growth inhibition on agar LB plates at pH 7.4 and pH 5; assay type: cell-based, Salmonella typhimurium; details: 20 nanomoles on filter disk
Source text: The formation of the foregoing chelate is also effective in inhibiting the growth of Salmonella typhimurium. This inhibition can be tested using agar disks or in culture suspension. The effect of the formation of chelate can be studied in this regard by conducting the experiments at pH 5 and pH 7.4; at pH 5 the formation of the chelate is encouraged while at […] the reaction rate is much slower.
The inhibition was spread between the disks rather than circling each disk as was the case for the PCPH inhibition. Thus, control of pH is a selective factor in controlling the self-assembly of the cytotoxic chelator.

Erythrocytes = assay: Antidote to self assembly, erythrocyte lysis; assay type: cell-based
Method: In this example, cyclohexanone is used as an antidote to prevent the assembly of AOG plus decanal to produce the biologically active agent DIOG, which was described in a previous example. Erythrocytes, prepared as above, were exposed to 20 µM AOG plus 20 µM decanal.

[5] = J Pharm Sci (1971) 60:1128-1131; cited from earlier work
some tumors = details: on a weight basis; Arnold et al, Proc Natl Acad Sci USA (1979); cited from earlier work

For `CCCCCCCCNC(=N)NN` [AOG, N-amino-N'-1-octyl guanidine], the hemolysis at 28 µM (human erythrocytes; Homo sapiens, Erythrocyte, 400 min, pH 7.4, 28 µM, 100 µM or 200 µM AOG alone, after more than 400 minutes, Figure 2) was < 5%, the lysis (human erythrocytes; either alone at 100 µM) was “did not result in any observable lysis” and the “percentage of cells intact” value (HeLa cells) was “considerably less dramatic decreases”. For the same compound, the HeLa cell toxicity (HeLa cells) was “neither is very toxic alone”, the “increase in cell density” value (S cerevisiae; 88 µg/ml AOG) was “threefold increase” and the mortality at 896 µM (Ox blood erythrocytes [1]; 896 µM AOG, Decanal 0µM (Table 4), read-out: % cells killed (1% serum)) was 1.3%. The mortality at 448 µM (Ox blood erythrocytes [1]; read-out: % cells killed (0% serum)) was 0%, the mortality at 448 µM (Ox blood erythrocytes [1]; read-out: % cells killed (1% serum)) was 0% and the hemolysis at 896 µM (Ox blood erythrocytes [2]; pH 6.6, 896 µM AOG, Decanal Concentration 0 (Table 5)) was 0%. For the same compound, the hemolysis at 448 µM (Ox blood erythrocytes [2]; pH 6.6, Decanal Concentration 0, 448 µM AOG according to the text (Table 5), comma separates duplicates) was 0% and the mortality at 896 µM (Ox blood erythrocytes [3]) was 6.4%.

For `O=C1CCC(=O)CC1` [CHD, cyclohexane-1,4-dione], the hemolysis at 60000 µM (human erythrocytes; Homo sapiens, Erythrocyte, pH 7.4, 60 mM CHD alone, after 24 hours) was 18% and the “time for which erythrocytes are stable” value (human erythrocytes) was “at least 24 hours”.

With `NNC(=Nc1ccccc1)NN` [DAPG, 1,2-diamino-3-phenyl guanididium iodide] the hemolysis at 3000 µM (human erythrocytes; Homo sapiens, Erythrocyte, pH 7.4, 3 mM DAPG alone, after 24 hours) was 18% and the “time for which erythrocytes are stable” value (human erythrocytes) was “at least 24 hours”.

In the case of `O=CCCCCCCCCC=O` [DDD, decanedialdehyde, CHO(CH₂)₈CHO], the lysis (human erythrocytes; either alone at 100 µM) is reported as “did not result in any observable lysis”.

With `NNc1ccccn1` [HP, 2-hydrazino-pyridine] the “toxicity to S. cerevisiae YP52” value (S. cerevisiae YP52) was “nontoxic” and the “growth of Monilinia sp” value (Monilinia sp) was “substantial growth”.

For `NC(=O)N/N=C/c1ccc([N+](=O)[O-])o1` [NFZ, nitrofurazone], the “maximum toxic selectivity (the ratio of CFU/ml at pH 7.4 as compared to CFU/ml at pH 5)” value [4] was “about 100”.

For `O=Cc1ccccn1` [PC, Pyridine-2-carboxaldehyde], the “toxicity to S. cerevisiae YP52” value (S. cerevisiae YP52) was “nontoxic” and the “growth of Monilinia sp” value (Monilinia sp) was “substantial growth”.

In the case of `C(=NNc1ccccn1)c1ccccn1` [PCPH, pyridino-2-carboxaldehyde (2-pyridyl hydrazone)], the “growth inhibition of S. typhimurium” value (S. typhimurium; pH 5) is reported as “inhibited growth” and the “growth inhibition of S. typhimurium” value (S. typhimurium; pH 7.4) is reported as “inhibited growth”.

With `O=C1CCCCC1` [cyclohexanone] the lysis (Erythrocytes; 20 mM cyclohexanone plus 10 µM AOG alone, no decanal) was “do not give lysis”, the lysis (Erythrocytes; cells first exposed to 20 µM AOG for 2 hours, then 20 µM decanal and 20 mM cyclohexanone) was “Extensive lysis” and the lysis (Erythrocytes; pretreatment 2 hours with 20 mM cyclohexanone alone, then 20 µM AOG plus 20 µM decanal) was “extensive lysis”. For the same compound, the lysis (Erythrocytes; pretreatment 2 hours with 20 mM cyclohexanone plus 20 µM AOG, then 20 µM decanal added) was “only slow lysis”.

In the case of `CCCCCCCCCC=O` [decanal], the lysis (human erythrocytes; 28 µM or 80 µM decanal alone, after more than 400 minutes, Figure 2) is reported as “less than 5%”, the “percentage of cells intact” value (HeLa cells) is reported as “considerably less dramatic decreases” and the “increase in cell density” value (S cerevisiae; 20 µg/ml decanal) is reported as 11 fold.

For `O=CCCCCCCCCCCC=O` [dodecanedial], the HeLa cell toxicity (HeLa cells) was “neither is very toxic alone”.

In the case of `CN(Cc1cnc2nc(N)nc(N)c2n1)c1ccc(C(=O)N[C@@H](CCC(=O)O)C(=O)O)cc1` [methotrexate], the “half-life of the drug in serum” value [5] is given as “about 2 hours”.

For “poly-(L-lysine) [poly-(L-lysine) of Mr 3 kd]”, the “toxicity relative to poly-(L-lysine) having Mr of 70 kd” value (some tumors) is listed as “less than 1/20”.
